Reference: PubChem BioAssay AID248 (DTP/NCI, 2004)
Values joined by “and” are separate entries in the source; they are usually repeats but may differ in a detail not shown here. Equal values may be shown once. Inconclusive results and toxic doses are left out. Rule as the data show it: active = T/C of 150% or more; inactive = T/C below 125%.

Test system: L1210 leukemia ip in BDF1 mice, survival T/C
Assay: NCI In Vivo Anticancer Drug Screen. Data for tumor model L1210 Leukemia (intraperitoneal) in B6D2F1 (BDF1) mice
Settings: endpoint: mean survival time, higher = longer survival
Method in brief: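 Transplanted-tumor mice were given test agent; controls received vehicle only. Survival readings from the two groups were divided (treated over control).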

[1] = dose: 100.0 mg/kg/injection, schedule: Q04DX003 (ip), vehicle: saline
[2] = dose: 200.0 mg/kg/injection, schedule: Q04DX003 (ip), vehicle: saline
[3] = dose: 400.0 mg/kg/injection, schedule: Q04DX003 (ip), vehicle: saline
[4] = dose: 25.0 mg/kg/injection, schedule: Q04DX003 (ip), vehicle: Klucel (hydroxypropylcellulose) (HPC)
[5] = dose: 100.0 mg/kg/injection, schedule: Q04DX003 (ip), vehicle: Klucel (hydroxypropylcellulose) (HPC)
[6] = dose: 100.0 mg/kg/injection, schedule: Q01DX009 (ip), vehicle: Klucel (hydroxypropylcellulose) (HPC)
[7] = dose: 200.0 mg/kg/injection, schedule: Q04DX003 (ip), vehicle: Klucel (hydroxypropylcellulose) (HPC)
[8] = dose: 400.0 mg/kg/injection, schedule: Q04DX003 (ip), vehicle: Klucel (hydroxypropylcellulose) (HPC)
[9] = dose: 18.75 mg/kg/injection, schedule: Q01DX009 (ip), vehicle: saline
[10] = dose: 25.0 mg/kg/injection, schedule: Q01DX009 (ip), vehicle: Klucel (hydroxypropylcellulose) (HPC)

Measured: T/C

COC(=O)c1csc(CCN)n1
inactive: [1] 102 % of control | [2] 94 % of control | [3] 97 % of control

CC1CCCCN1P(=[Se])(c1ccccc1)N1CCCCC1C (stereo not drawn)
inactive: [4] 97 % of control | dose: 50.0 mg/kg/injection, schedule: Q04DX003 (ip), vehicle: Klucel (hydroxypropylcellulose) (HPC) 103 % of control | [5] 100 % of control and 90 % of control

CC(=O)OCC(=O)[C@@]1(O)CC[C@H]2[C@@H]3C[C@H](C)C4=CC(=O)C=C[C@]4(C)[C@@]3(Br)[C@@H](O)C[C@@]21C
inactive: dose: 50.0 mg/kg/injection, schedule: Q01DX001 (sc), vehicle: steriod suspending solution 101 % of control | dose: 100.0 mg/kg/injection, schedule: Q01DX001 (sc), vehicle: steriod suspending solution 109 % of control | dose: 200.0 mg/kg/injection, schedule: Q01DX001 (sc), vehicle: steriod suspending solution 106 % of control | dose: 400.0 mg/kg/injection, schedule: Q01DX001 (sc), vehicle: steriod suspending solution 104 % of control

CCCCCCNC(=O)Oc1cccc(NC(=O)CC)c1
inactive: dose: 100.0 mg/kg/injection, schedule: Q04DX003 (ip), vehicle: saline with Tween-80 104 % of control | dose: 200.0 mg/kg/injection, schedule: Q04DX003 (ip), vehicle: saline with Tween-80 88 % of control | dose: 400.0 mg/kg/injection, schedule: Q04DX003 (ip), vehicle: saline with Tween-80 102 % of control

CCNS(=O)(=O)c1ccc(C(N)=S)cc1
inactive: dose: 100.0 mg/kg/injection, schedule: Q01DX001 (ip), vehicle: saline with Tween-80 100 % of control | dose: 200.0 mg/kg/injection, schedule: Q01DX001 (ip), vehicle: saline with Tween-80 97 % of control | dose: 400.0 mg/kg/injection, schedule: Q01DX001 (ip), vehicle: saline with Tween-80 98 % of control

COc1ccc(NC(=O)COc2ccc(Cl)cc2)cc1
inactive: [6] 93 % of control | [5] 100 % of control | dose: 200.0 mg/kg/injection, schedule: Q01DX009 (ip), vehicle: Klucel (hydroxypropylcellulose) (HPC) 90 % of control | [7] 106 % of control | dose: 400.0 mg/kg/injection, schedule: Q01DX009 (ip), vehicle: Klucel (hydroxypropylcellulose) (HPC) 92 % of control | [8] 93 % of control

OCC(O)C(O)C(O)C(O)c1nc2ccccc2[nH]1 (stereo not drawn)
inactive: dose: 100.0 mg/kg/injection, schedule: Q04DX002 (ip), vehicle: Klucel (hydroxypropylcellulose) (HPC) 105 % of control | dose: 200.0 mg/kg/injection, schedule: Q04DX002 (ip), vehicle: Klucel (hydroxypropylcellulose) (HPC) 87 % of control | dose: 400.0 mg/kg/injection, schedule: Q04DX002 (ip), vehicle: Klucel (hydroxypropylcellulose) (HPC) 97 % of control

Oc1cc(O)c(CN(CCCl)CCCl)cc1CN(CCCl)CCCl
inactive: dose: 5.5 mg/kg/injection, schedule: Q01DX009 (ip), vehicle: saline 115 % of control | dose: 8.2 mg/kg/injection, schedule: Q01DX009 (ip), vehicle: saline 121 % of control | [9] 103 % of control | dose: 25.0 mg/kg/injection, schedule: Q01DX009 (ip), vehicle: saline with Tween-80 101 % of control | dose: 50.0 mg/kg/injection, schedule: Q01DX001 (ip), vehicle: carboxymethylcellulose (CMC) 115 % of control | dose: 50.0 mg/kg/injection, schedule: Q01DX009 (ip), vehicle: saline with Tween-80 94 % of control | dose: 100.0 mg/kg/injection, schedule: Q01DX001 (ip), vehicle: carboxymethylcellulose (CMC) 115 % of control | [1] 110 % of control | dose: 200.0 mg/kg/injection, schedule: Q01DX001 (ip), vehicle: carboxymethylcellulose (CMC) 108 % of control | [2] 92 % of control | dose: 400.0 mg/kg/injection, schedule: Q01DX001 (ip), vehicle: carboxymethylcellulose (CMC) 123 % of control | [3] 90 % of control | dose: 800.0 mg/kg/injection, schedule: Q04DX003 (ip), vehicle: saline 100 % of control

CCC(=O)c1ccccc1N
inactive: dose: 100.0 mg/kg/injection, schedule: Q01DX009 (ip), vehicle: saline with Tween-80 97 % of control | dose: 200.0 mg/kg/injection, schedule: Q01DX009 (ip), vehicle: saline with Tween-80 105 % of control | dose: 400.0 mg/kg/injection, schedule: Q01DX009 (ip), vehicle: saline with Tween-80 92 % of control

CCOC(=O)C(C#N)N=O (stereo not drawn)
inactive: dose: 6.25 mg/kg/injection, schedule: Q04DX003 (ip), vehicle: Klucel (hydroxypropylcellulose) (HPC) 89 % of control | dose: 12.5 mg/kg/injection, schedule: Q04DX003 (ip), vehicle: Klucel (hydroxypropylcellulose) (HPC) 91 % of control | [10] 95 % of control | [4] 92 % of control | dose: 50.0 mg/kg/injection, schedule: Q01DX009 (ip), vehicle: Klucel (hydroxypropylcellulose) (HPC) 103 % of control | dose: 50.0 mg/kg/injection, schedule: Q04DX003 (ip), vehicle: saline 100 % of control | [6] 97 % of control

CC(=O)SCCC(=O)O
inactive: dose: 8.25 mg/kg/injection, schedule: Q01DX009 (ip), vehicle: saline 94 % of control | dose: 12.5 mg/kg/injection, schedule: Q01DX009 (ip), vehicle: saline 92 % of control | [9] 103 % of control

COc1cc(/C=N/N2CCN(/N=C/c3cc(OC)c(OC)c(OC)c3)CC2)cc(OC)c1OC
inactive: [5] 103 % of control | [7] 101 % of control | [8] 103 % of control

O=C(CCN1CC1)OC1CCCCCC1
inactive: dose: 6.25 mg/kg/injection, schedule: Q01DX009 (ip), vehicle: Klucel (hydroxypropylcellulose) (HPC) 100 % of control | dose: 12.5 mg/kg/injection, schedule: Q01DX009 (ip), vehicle: Klucel (hydroxypropylcellulose) (HPC) 100 % of control | [10] 95 % of control | [5] 104 % of control | [7] 101 % of control

CC(=O)OC1C=C2CCCCC2(C)CC1 (stereo not drawn)
inactive: dose: 50.0 mg/kg/injection, schedule: Q04DX002 (ip), vehicle: saline with Tween-80 96 % of control | dose: 100.0 mg/kg/injection, schedule: Q04DX002 (ip), vehicle: saline with Tween-80 96 % of control | dose: 200.0 mg/kg/injection, schedule: Q04DX002 (ip), vehicle: saline with Tween-80 111 % of control

COC1N(C2CC(O)C(CO)O2)C(=O)NC(=O)C1(F)Br (stereo not drawn)
inactive: dose: 5.0 mg/kg/injection, schedule: Q01DX009 (ip), vehicle: saline 123 % of control | dose: 10.0 mg/kg/injection, schedule: Q01DX009 (ip), vehicle: saline 112 % of control | dose: 20.0 mg/kg/injection, schedule: Q01DX009 (ip), vehicle: saline 122 % of control | dose: 20.0 mg/kg/injection, schedule: Q04DX003 (ip), vehicle: saline 105 % of control | dose: 40.0 mg/kg/injection, schedule: Q04DX003 (ip), vehicle: saline 102 % of control | dose: 50.0 mg/kg/injection, schedule: Q01DX009 (ip), vehicle: saline 103 % of control | dose: 80.0 mg/kg/injection, schedule: Q04DX003 (ip), vehicle: saline 117 % of control | dose: 100.0 mg/kg/injection, schedule: Q01DX009 (ip), vehicle: saline 98 % of control | dose: 160.0 mg/kg/injection, schedule: Q04DX003 (ip), vehicle: saline 108 % of control | dose: 200.0 mg/kg/injection, schedule: Q01DX009 (ip), vehicle: saline 102 % of control | dose: 400.0 mg/kg/injection, schedule: Q01DX009 (ip), vehicle: saline 94 % of control
